Columns and labels:
[1] = biological target: T1, hDP (Homo sapiens, UniProt Q13258); assay: Calcium signal (FLIPR) assay, hDP (HEK); format: cell-based; settings: for Kb: antagonism of standard agonist BW245C, HEK cells coexpress chimeric Gqs5
T1 construct: expressed in transfected cells; host or cells: HEK (by analogy HEK-293(EBNA))
T1 sequence (Q13258 1-359): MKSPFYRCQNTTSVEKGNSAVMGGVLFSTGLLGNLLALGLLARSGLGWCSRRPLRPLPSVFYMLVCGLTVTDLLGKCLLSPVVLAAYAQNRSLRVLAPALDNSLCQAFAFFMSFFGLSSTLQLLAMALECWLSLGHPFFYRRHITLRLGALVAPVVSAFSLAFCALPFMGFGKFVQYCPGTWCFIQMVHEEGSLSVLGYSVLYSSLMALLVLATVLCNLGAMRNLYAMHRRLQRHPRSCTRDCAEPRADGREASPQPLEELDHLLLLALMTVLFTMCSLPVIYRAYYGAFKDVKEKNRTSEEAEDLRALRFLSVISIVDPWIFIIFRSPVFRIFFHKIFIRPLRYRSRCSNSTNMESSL
Description: (§1) Cells were then washed twice with HBSS-HEPES buffer (Hanks Balanced Salt Solution without bicarbonate and phenol red, 20 mM HEPES, pH 7.4) using a Denley Cellwash plate washer (Labsystems; Franklin, Mass.). After 45-60 min of dye-loading in the dark using the calcium-sensitive dye Fluo-4 AM, at a final concentration of 2 μM, plates were washed four times with HBSS-HEPES buffer to remove excess dye and leaving 100 μl buffer in each well. Plates were then placed into a FLIPR™ instrument and were allowed to equilibrate at 37° C. Drug solution was added in a 50 μl volume to each well to give the desired final concentration. Cells were excited with an Argon laser at 488 nm, and emission was measured through a 510-570 nm bandwidth emission filter (FLIPR™, Molecular Devices, Sunnyvale, Calif.). The peak increase in fluorescence intensity was recorded for each well. […] A similar analysis was carried out for the other prostaglandin receptors, and for compound 2.

[2] = biological target: T2, human EP4 receptor (Homo sapiens, UniProt P35408); assay: Effect on Prostaglandin E2 induced calcium signal (FLIPR), hEP4 (HEK); format: cell-based
T2 construct: expressed in transfected cells; host or cells: HEK-293(EBNA)
Description: (§2) Cells were then washed twice with HBSS-HEPES buffer (Hanks Balanced Salt Solution without bicarbonate and phenol red, 20 mM HEPES, pH 7.4) using a Denley Cellwash plate washer (Labsystems; Franklin, Mass.). After 45-60 min of dye-loading in the dark using the calcium-sensitive dye Fluo-4 AM, at a final concentration of 2 μM, plates were washed four times with HBSS-HEPES buffer to remove excess dye and leaving 100 μl buffer in each well. Plates were then placed into a FLIPR™ instrument and were allowed to equilibrate at 37° C. […] The peak increase in fluorescence intensity was recorded for each well.

[3] = biological target: T3, hEP3A (Homo sapiens, UniProt P43115); assay: Calcium signal (FLIPR) assay, hEP3A (HEK); format: cell-based
T3 construct: expressed in transfected cells; host or cells: HEK (by analogy HEK-293(EBNA))
T3 sequence (P43115 1-390): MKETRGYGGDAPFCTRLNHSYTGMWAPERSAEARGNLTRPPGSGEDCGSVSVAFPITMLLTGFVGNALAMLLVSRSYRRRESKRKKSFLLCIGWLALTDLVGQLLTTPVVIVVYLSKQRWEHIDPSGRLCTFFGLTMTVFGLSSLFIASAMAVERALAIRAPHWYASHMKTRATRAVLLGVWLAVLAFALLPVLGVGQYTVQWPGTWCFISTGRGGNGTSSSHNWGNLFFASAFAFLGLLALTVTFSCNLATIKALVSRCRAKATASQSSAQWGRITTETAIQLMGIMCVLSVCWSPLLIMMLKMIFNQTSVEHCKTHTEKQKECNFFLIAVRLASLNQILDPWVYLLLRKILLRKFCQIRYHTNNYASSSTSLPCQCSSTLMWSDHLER
Description: as §2

[4] = Capsule or suppository given daily to patient suffering from cancer (Example 27); format: in vivo, human
Description: A capsule or suppository comprising compound 1 is administered daily to a patient suffering from cancer.

[5] = biological target: T4, hFP (Homo sapiens, UniProt P43088); assay: Calcium signal (FLIPR) assay, hFP (HEK); format: cell-based
T4 construct: expressed in transfected cells; host or cells: HEK (by analogy HEK-293(EBNA))
Description: as §2

[6] = biological target: T5, hEP1 (Homo sapiens, UniProt P34995); assay: Calcium signal (FLIPR) assay, hEP1 (HEK); format: cell-based
T5 construct: expressed in transfected cells; host or cells: HEK (by analogy HEK-293(EBNA))
T5 sequence (P34995 1-402): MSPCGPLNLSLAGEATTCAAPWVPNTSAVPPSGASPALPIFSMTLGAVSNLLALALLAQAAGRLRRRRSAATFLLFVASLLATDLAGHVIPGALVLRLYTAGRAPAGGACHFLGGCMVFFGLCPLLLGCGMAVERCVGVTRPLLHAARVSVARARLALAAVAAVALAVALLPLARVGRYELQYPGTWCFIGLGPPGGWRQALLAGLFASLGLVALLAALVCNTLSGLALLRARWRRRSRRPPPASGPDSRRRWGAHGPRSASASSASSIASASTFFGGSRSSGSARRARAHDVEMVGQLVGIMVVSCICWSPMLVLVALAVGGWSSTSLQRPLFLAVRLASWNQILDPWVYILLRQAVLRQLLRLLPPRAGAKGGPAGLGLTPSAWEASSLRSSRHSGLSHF
Description: as §1

[7] = biological target: T6, hTP (Homo sapiens, UniProt P21731); assay: Calcium signal (FLIPR) assay, hTP (HEK); format: cell-based; settings: for Kb: antagonism of standard agonist U-46619, HEK cells
T6 construct: expressed in transfected cells; host or cells: HEK (by analogy HEK-293(EBNA))
T6 sequence (P21731 1-343): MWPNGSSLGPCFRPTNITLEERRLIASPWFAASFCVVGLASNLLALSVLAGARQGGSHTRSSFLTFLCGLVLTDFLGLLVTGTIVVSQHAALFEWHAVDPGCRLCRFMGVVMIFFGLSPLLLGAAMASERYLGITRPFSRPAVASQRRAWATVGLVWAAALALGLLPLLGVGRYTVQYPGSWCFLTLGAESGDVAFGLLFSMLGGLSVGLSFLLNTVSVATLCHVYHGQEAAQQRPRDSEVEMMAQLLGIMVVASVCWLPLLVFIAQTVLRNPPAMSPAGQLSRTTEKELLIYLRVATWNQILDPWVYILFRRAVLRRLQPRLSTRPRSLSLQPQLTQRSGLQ
Description: as §1

[8] = biological target: T7, hEP2 (Homo sapiens, UniProt P43116); assay: Calcium signal (FLIPR) assay, hEP2 (HEK); format: cell-based
T7 construct: expressed in transfected cells; host or cells: HEK (by analogy HEK-293(EBNA))
Description: as §2

[9] = biological target: T8, hIP (Homo sapiens, UniProt P43119); assay: Calcium signal (FLIPR) assay, hIP (HEK); format: cell-based; settings: antagonism of standard agonist Carbacyclin; HEK cells
T8 construct: expressed in transfected cells; host or cells: HEK (by analogy HEK-293(EBNA))
Description: as §2

[10] = Capsule given daily to patient suffering from osteoporosis (Example 25); format: in vivo, human
Description: A capsule comprising compound 2 is administered daily to a patient suffering from osteoporosis.

[11] = Tablet given to person suffering from migraine headache (Example 26); format: in vivo, human; settings: person suffering from a migraine headache
Description: A tablet comprising compound 2 is administered to a person suffering from a migraine headache.

T7 sequence (P43116 whole entry): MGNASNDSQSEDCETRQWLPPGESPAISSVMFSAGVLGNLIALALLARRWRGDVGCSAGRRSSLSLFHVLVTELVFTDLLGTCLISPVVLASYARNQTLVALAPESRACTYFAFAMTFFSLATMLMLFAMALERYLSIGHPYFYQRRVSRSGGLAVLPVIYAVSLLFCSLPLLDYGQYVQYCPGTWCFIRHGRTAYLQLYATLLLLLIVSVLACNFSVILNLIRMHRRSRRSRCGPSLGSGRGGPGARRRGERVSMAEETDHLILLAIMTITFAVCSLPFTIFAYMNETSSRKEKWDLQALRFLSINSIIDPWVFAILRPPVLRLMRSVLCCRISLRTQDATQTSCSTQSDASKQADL
T8 sequence (P43119 whole entry): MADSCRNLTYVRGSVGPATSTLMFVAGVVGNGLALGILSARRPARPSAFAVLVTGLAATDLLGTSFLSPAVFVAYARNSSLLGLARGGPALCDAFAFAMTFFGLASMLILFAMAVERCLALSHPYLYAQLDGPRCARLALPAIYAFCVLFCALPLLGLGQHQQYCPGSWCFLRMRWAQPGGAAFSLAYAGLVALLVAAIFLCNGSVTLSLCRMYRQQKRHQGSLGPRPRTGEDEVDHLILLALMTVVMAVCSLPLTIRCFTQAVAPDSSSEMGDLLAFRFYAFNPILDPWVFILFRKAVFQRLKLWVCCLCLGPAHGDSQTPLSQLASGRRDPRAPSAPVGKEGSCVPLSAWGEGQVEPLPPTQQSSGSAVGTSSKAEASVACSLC
T4 sequence (P43088 whole entry): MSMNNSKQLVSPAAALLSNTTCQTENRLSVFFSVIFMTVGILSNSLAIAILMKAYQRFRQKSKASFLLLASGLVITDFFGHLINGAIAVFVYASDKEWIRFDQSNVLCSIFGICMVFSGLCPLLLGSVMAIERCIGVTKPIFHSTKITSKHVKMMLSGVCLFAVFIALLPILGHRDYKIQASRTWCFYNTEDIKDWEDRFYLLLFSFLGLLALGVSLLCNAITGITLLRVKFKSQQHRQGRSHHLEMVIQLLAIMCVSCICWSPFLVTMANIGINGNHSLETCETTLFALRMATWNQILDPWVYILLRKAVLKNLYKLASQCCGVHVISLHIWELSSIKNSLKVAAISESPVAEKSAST
T2 sequence (P35408 whole entry): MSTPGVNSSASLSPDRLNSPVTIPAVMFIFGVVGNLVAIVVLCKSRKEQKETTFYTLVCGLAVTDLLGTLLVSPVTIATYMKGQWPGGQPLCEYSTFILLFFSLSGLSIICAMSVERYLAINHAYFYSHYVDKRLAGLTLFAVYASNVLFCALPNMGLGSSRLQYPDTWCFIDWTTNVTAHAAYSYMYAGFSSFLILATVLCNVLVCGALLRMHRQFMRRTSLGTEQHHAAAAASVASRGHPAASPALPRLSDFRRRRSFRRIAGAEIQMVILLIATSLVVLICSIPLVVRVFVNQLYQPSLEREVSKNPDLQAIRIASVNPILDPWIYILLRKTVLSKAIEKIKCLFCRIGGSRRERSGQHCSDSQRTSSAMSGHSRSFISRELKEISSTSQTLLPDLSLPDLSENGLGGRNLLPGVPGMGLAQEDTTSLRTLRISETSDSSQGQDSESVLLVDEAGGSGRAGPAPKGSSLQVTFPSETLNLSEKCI

## O=C(O)CCCCCCC1C(=O)NC(=O)N1CCC(O)C1CCCCC1 (stereo not shown) [BW245C, reference compound]
[1]; agonist potency, calcium signal, cells coexpress chimeric Gqs5, read-out: Standard agonist hDP (HEK)
  EC50: 0.006 µM

## CN(CC(=O)Nc1c2c(nc3c1CCC3)CCCC2)Cc1ccccc1 [Compound 1]
[2]
  Kb: 0.101 µM
[3]
  Kb: > 10 µM
[4]
  Patient's condition: Improvement in the patient's condition occurs
[1]
  Kb: > 10 µM
[5]
  Kb: > 10 µM
[6]
  Kb: > 10 µM
[7]
  Kb: > 10 µM
[8]
  Kb: > 10 µM
[9]
  Kb: > 10 µM

## CN(CC(=O)Nc1c2c(nc3ccccc13)CCC2)Cc1ccccc1 [Compound 2]
[10]
  Bone density: Increase in bone density or reduction in bone density loss occurs
[2]
  Kb: 0.172 µM
[11]
  Pain: Significantly less pain is experienced by the patient
[3]
  Kb: > 10 µM
[1]
  Kb: > 10 µM
[5]
  Kb: > 10 µM
[6]
  Kb: > 10 µM
[7]
  Kb: > 10 µM
[8]
  Kb: > 10 µM
[9]
  Kb: > 10 µM

## CCCCC[C@H](O)/C=C/[C@@H]1[C@@H](C/C=C\CCCC(=O)O)[C@H]2CO[C@@H]1C2 [Compound U-46619, U-46619, reference compound]
[7]; agonist potency, calcium signal, read-out: Standard agonist hTP (HEK)
  EC50: 0.0003 µM

## CCCCC[C@H](O)/C=C/[C@H]1[C@H](O)CC(=O)[C@@H]1C/C=C\CCCC(=O)O [PGE2, Prostaglandin E2, reference compound]
[6]; agonist potency, calcium signal, read-out: Standard agonist hEP1 (HEK)
  EC50: 0.0003 µM
